| SMILES | melting point [°C] |
| --- | --- |
| COC(=O)/C=C/c1ccc(Br)s1 | 60 to 62 |
| Fc1cc(F)c(-c2c(Cl)nc3nccn3c2NCC(F)(F)F)c(F)c1 | 155 to 157 |
| CCC1CCC2C3CC=C4CCCCC4(C)C3CCC12C (stereo unspecified) | 104 to 106 |
| Cc1nc(Sc2ccccn2)sc1CC(=O)O | 140 to 142 |
| CSc1cccc(-c2coc3ccc(-c4nnc(C)o4)cc23)c1 | 99 to 100 |
| CCCCc1c(OC)cc(C)c(C=CC(C)=CC=CC(C)=CC(=O)OCC)c1C | 147 to 148 |
| O=C/C=C/c1ccc(Cl)c(Cl)c1 | 92 to 94 |
| O=C(O)CC(O)(CC(=O)O)C(F)(F)F | 102 to 105 |
| Cc1sc(-c2cnc3ccccc3c2)nc1O | 279 to 280 |
| O=C(O)c1cc(=O)c2c(I)cc(Cl)cc2[nH]1 | 298 |
| Cc1cccc(I)c1C(=O)NC(C)(C)CS(C)(=O)=O | 134 to 136 |
| CC(C)(S)CN1CCN(c2ccc(C#N)cc2)CC1 | 92 to 94 |
| CC(=O)n1cc(C#N)c(-c2ccccc2C(F)(F)F)c1 | 67 to 69 |
| Cc1nc(C(Cl)(Cl)Cl)nc(OC(=O)C(Cl)(Cl)Cl)c1Cl | 92 |
| OCc1cccc(-c2ncc(Br)cn2)c1 | 115 to 116 |
| Nc1nc(C(=O)NCCO)cs1 | 118 to 120 |
| CC1(C)Oc2ccc(S(=O)(=O)C(F)(F)C(F)(F)C(F)(F)F)cc2[C@@H](N)[C@@H]1O (relative stereo) | 176 to 177 |
| CCOC(=O)Cc1coc2c(OC)ccc(C(=O)Cc3ccncc3)c12 | 111 to 117 |
| Cn1nc(-c2ncc(Cl)cc2F)c(C=O)c1OC(F)F | 111 to 116 |
| FC(F)(F)c1cc(Cl)c(-n2ncc(-c3ncc[nH]3)n2)c(Cl)c1 | 282 to 283 |
| CCOC(=O)c1ncc2[nH]c3cccc(Oc4ccc(Cl)cn4)c3c2c1C | 194 to 196 |
| COc1c(C)c(C)c(OC)c(CBr)c1C | 71 to 72 |
| C#Cc1ccc2c(c1)C(c1ccccn1)=NCc1c(C(=O)NC)ncn1-2 | 215 to 216 |
| CCCCN(CCCC)c1ccc(C=CC2=C(C#N)C(=C(C#N)C#N)OC2(C)C)c(OC)c1 | 222 to 226 |
| N#Cc1cc(C=Cc2ccc(N(c3ccccc3)c3ccccc3)cc2)c(C#N)cc1C=Cc1ccc(N(c2ccccc2)c2ccccc2)cc1 | 260 |
| CN(C)c1nc(C(F)(F)F)cc(=O)o1 | 79 |
| COc1cccc(-c2noc3cc(F)ccc23)c1 | 68 to 69 |

| SMILES | melting point [°C] |
| --- | --- |
| Cc1cc(Br)c(C)cc1Cl | 60 to 64 |
| OC1(c2ccc(F)c(F)c2)CCC2(CC1)OCCO2 | 118 to 120 |
| N#CSCCNc1ccccc1[N+](=O)[O-] | 112 to 113 |
| CCn1cc(Cl)nc(SCC(=O)Nc2ccccc2)c1=O | 156 to 158 |
| Clc1cc(Cl)n2c(-c3ccccc3)nc(Cl)c2n1 | 133 to 134 |
| CC(C)(C)c1cc(SCCC(=O)NC2C3CC4CC(C3)CC2C4)cc(C(C)(C)C)c1O (stereo unspecified) | 156 |
| c1ccc(CSc2cnccc2C2=NOCCO2)cc1 | 110 to 112 |
| COc1cccc(C(=O)O)c1I | 142 to 146 |
| O=C(O)Cc1ccc(Sc2ccc(Cl)cc2)cc1 | 135 to 140 |
| Fc1ccc(N2CCN(c3cccc(C(F)(F)F)c3)CC2)nn1 | 132 |
| Clc1cccc(Nc2ccccc2)c1 | 128 to 138 |
| COc1cc(CCl)c(CCl)cc1OCCCl | 117 to 118 |
| O=C1Nc2ccccc2C12CCNCC2 | 184 to 186 |
| Cc1ccc(Cn2c(NC3CCNCC3)nc3cnccc32)o1 | 186 |
| CCCc1c(OCCCBr)ccc(C(C)=O)c1O | 38 to 40 |
| CC1=CSC(O)C(=O)N1 (stereo unspecified) | 166 to 168 |
| Cn1c(=O)c(S(C)(=O)=O)c(O)c2ccccc21 | 169 to 172 |
| Cc1cc(-c2nc3ccc(F)cc3s2)ccc1N | 203 to 205 |
| Nc1ncnc2c1c(Br)cn2COCCO | 163 to 164 |
| COP(=O)(Cc1cc(C)c(C)cc1CP(=O)(OC)OC)OC | 66 to 69 |
| CCc1ccc2c(O)cnn2c1 | 78 to 79 |
| O=C(O)CC1(c2ccccc2)CCCCC1=O (stereo unspecified) | 130 to 132 |
| COc1ccc2ccc(N)cc2c1 | 157 |
| CC(C)n1cc(-c2cccc(Cl)c2)c2ncccc2c1=O | 164 |
| CCOC(=O)c1cc(-c2csc(-c3cccnc3)n2)[nH]n1 | 105 to 107 |
| CCC(CC)C(NC(=O)c1ccc(Cl)cc1)Nc1c(Nc2cccnc2)c(=O)c1=O (stereo unspecified) | 232 to 233 |
| CCOC(=O)c1ccc(C=C(C)C=O)cn1 | 72 to 73 |

Now from value to molecule:

| melting point [°C] | SMILES |
| --- | --- |
| 231 to 232 | Cc1cc2oc(C(=O)O)cc(=O)c2c2c1-c1ccccc1C(C)(C)O2 |
| 53 to 54 | O=C(OCc1cc(OCCCBr)c(OCCCBr)c(OCCCBr)c1)c1ccccc1 |
| 174 to 177 | Cc1nn(-c2ccccc2)c(-c2ccc(Cl)cc2)c1CC(=O)O |
| 125 to 126 | Cc1cccc(CC(=O)O)c1OCc1nc(OC(C)C)c(C(=O)NCc2ccc(Cl)cc2Cl)s1 |
| 155 to 156 | CN(O)C(=O)CCc1cc(-c2ccc(Cl)cc2)n(-c2ccccc2)n1 |
| 144 to 145 | c1cc(-n2cccc2)cc(-n2cnc3cc(-c4ccoc4)ccc32)c1 |
| 168 to 171 | O=C(CCc1ccc(NC2=NCCN2)cc1)c1ccc(N2CCOCC2)cc1F |
| 226 | CCNS(=O)(=O)c1cccc(NC(=O)c2cnn3c(C(F)(F)F)cc(-c4ccc(C(F)(F)F)c(OCC)c4)nc23)c1 |
| 170 to 172 | Cc1oc(-c2ccccc2)nc1CCOc1ccc(C[C@H](NC(=O)C=Cc2ccccc2C(F)(F)F)C(=O)O)cc1 |
| 164 to 166 | CCC(CC)(CC(=O)Nc1ccc2ccc(OCc3ccc4ccc(F)cc4n3)cc2c1)C(=O)O |
| 155 to 157 | CCn1nc2c(N)nc3ccccc3c2c1CC(C)(C)NCCS(C)(=O)=O |
| 67 to 83 | CCN(CC)c1ccc(C2(N(c3ccc(N(C)C)cc3)c3ccc(N(C)C)cc3)OC(=O)c3ccccc32)c(C)c1 (stereo unspecified) |
| 160 to 162 | COc1nc(C)cnc1NS(=O)(=O)c1ccccc1-c1ccc(CC(C)C)c(N)c1 |
| 284 to 286 | O=C(O)Cc1sc(NC(=O)c2cc(Br)ccc2O)nc1-c1ccccc1 |
| 119 to 120 | CCCCCCCNC(=O)CCCCCCCSc1nc(-c2ccccc2)c(-c2ccccc2)[nH]1 |
| 126 to 127 | CN(C)CCNC(=O)c1cccc(-c2cccc3cc(Cc4cc(F)cc(Cl)c4)sc23)c1 |
| 144 to 146 | CCCn1nc2c(N)nc3ccccc3c2c1CCCCN1C(C)=NOC1(C)C |
| 150 to 151 | CON1CCC2(CC1)NC(=O)C(c1cc(-c3ccc(Cl)cc3)c(F)cc1C)=C2OC(=O)C(C)(C)C |
| 224 | Clc1cc(N2CCC(N3CCN(c4cccc5[nH]ccc45)CC3)CC2)c2ncccc2c1 |
| 173 to 175 | O=C(NS(=O)(=O)c1ccccc1)c1cccc2nnsc12 |
| 96 to 97 | Cc1nc(N2CCN(Cc3ccccc3)C2=O)sc1C(=O)NCc1ccncc1 |
| 94 to 96 | CC(=O)OCCC1CCN(CCCN2c3cc(OCc4ccccc4)ccc3Sc3c2cccc3S(=O)(=O)N(C)C)CC1 |
| 111 to 114 | CN1CCC(C2c3ccccc3CCc3cccnc32)CC1 (stereo unspecified) |
| 127 to 128 | COCCSc1ccccc1S(=O)(=O)NC(=O)Nc1nc(C)nc(OC)n1 |

| melting point [°C] | SMILES |
| --- | --- |
| 94.6 to 94.8 | CCOC(=O)c1cnc(Oc2cc(OCCOC)ccc2CCCOC(=O)NCC2CC2)c(Cl)c1 |
| 176 to 178 | Cc1nc(N2CCN(CC3(C#N)C=CC=CC3)C2=O)sc1C(=O)NCc1ccccc1 (stereo unspecified) |
| 216 to 217 | N#Cc1cc(C(=O)NNC(=O)c2occc2-c2ccccc2)ccc1O |
| 72 to 73 | CS(=O)(=O)O[C@H](COCc1ccccc1)[C@@H](COCc1ccccc1)OS(C)(=O)=O |
| 206 to 207 | O=C(NCCCn1ccc2cc(NC(=O)c3nc4ccc(Cl)cc4n3Cc3ccccc3)ccc21)c1cccnc1 |
| 58 to 65 | CCOC(=O)CCCn1c(C(=O)C2CCN(CCC3(c4ccc(Cl)c(Cl)c4)CCN(C(=O)c4cc(OC)c(OC)c(OC)c4)C3)CC2)nc2ccccc21 (stereo unspecified) |
| 142 to 144 | O=Cc1ccc(Cc2ccccc2)cc1 |
| 113 to 115 | CC(C)N1CCc2ccc(C(=O)CCC(=O)N3CCC(c4ccc(Cl)cc4)CC3)cc2C1 |
| 137 to 140 | COC(=O)N1CCC[C@@H](OC)[C@@H]1CC(=O)Cn1cnc2ccc(C(F)(F)F)cc2c1=O (relative stereo) |
| 155 to 156 | O=C(O)Cc1ccc(Cc2ccccc2CC(=O)O)cc1 |
| 196 to 200 | N#Cc1ccc(-c2sc(N)c(C(=O)c3ccc(Cl)cc3)c2CN(C2CCCCC2)C2CCCCC2)cc1 |
| 140 to 141 | OCc1cc(-c2ccccc2)nn1Cc1ccc(Cl)cc1Cl |
| 224 to 228 | COc1cc2[nH]c(N(C)Cc3cccc(Oc4ncccn4)c3)nc(=O)c2c(C)c1OC |
| 283 to 284 | CC(C)(CCc1noc(=O)[nH]1)c1ccc(C(=O)Nc2cn3cc(-n4ccnc4)ccc3n2)cc1 |
| 142 to 143 | CS(=O)(=O)c1ccc(-c2cnn(-c3cccc(Cl)c3)c(=O)c2Cc2cccc(F)c2)cc1 |
| 200 | O=C(O)c1ccccc1-c1n[nH]c(-c2cccc(C(F)(F)F)c2)n1 |
| 78 to 90 | O=C(O)Cc1c(-c2ccccc2)nn2cccnc12 |
| 75 to 80 | CC(=O)OCC1OC(n2cnc3c(NCC(c4ccccc4)c4ccccc4)ncnc32)C(OC(C)=O)C1OC(C)=O (stereo unspecified) |
| 85 | CCOC(=O)c1ncsc1-c1cccc(OCc2cccc(C#N)c2)c1 |
| 80 | CC(C)(C)OC(=O)NC(Cc1ccc(-c2cccc(CNCC(=O)c3ccccc3)c2)cc1)C(=O)O (stereo unspecified) |
| 221 to 222 | CCCc1ccnc2c(=O)[nH]c(-c3cc(S(=O)(=O)NCCN4CCNC4=O)ccc3OCC)nc12 |
| 119 to 120 | NS(=O)(=O)c1cnc(S(=O)(=O)c2ccccc2)s1 |
| 95 to 96 | CC(=O)c1ccc(NS(C)(=O)=O)c(Oc2ccc(F)cc2)c1 |

— a melting point compilation (Tetko et al.; mined from patent text by program, amines drawn as free bases though some values may be those of a salt)
